Where two headings read alike, the source gives them in different places.
Target: hNR2B (Homo sapiens, UniProt Q05586+Q13224)
Test: Electrophysiology NMDA receptor experiments: two electrode voltage-clamp in Xenopus laevis oocytes expressing GluN1/GluN2 subunits
Assay type: cell-based
Details: oocytes voltage clamped at −40 mV, 50 μM glutamate, 30 μM glycine
Procedure: Electrophysiology NMDA Receptor Experiments.
Stage V and VI oocytes were surgically removed from the ovaries of large, well-fed and healthy Xenopus laevis anesthetized with 3-amino-benzoic acid ethyl ester (3 gm/l). Clusters of isolated oocytes were incubated with 292 U/ml Worthington (Freehold, N.J.) type IV collagenase or 1.3 mg/ml collagenase (Life Technologies, Gaithersburg, Md.; 17018-029) for 2 hr in Ca^2+-free solution comprised of (in mM) 115 NaCl, 2.5 KCl, and 10 HEPES, pH 7.5, with slow agitation to remove the follicular cell layer. Oocytes were then washed in the same solution supplemented with 1.8 mM CaCl2 and maintained in Barth's solution comprised of (in mM): 88 NaCl, 1 KCl, 2.4 NaHCO3, 10 HEPES, 0.82 MgSO4, 0.33 Ca(NO3)2, and 0.91 CaCl2 and supplemented with 100 μg/ml gentamycin, 10 μg/ml streptomycin, and 10 μg/ml penicillin. Oocytes were manually defolliculated and injected within 24 hrs of isolation with 3-5 ng of human GluN1 subunit cRNA and 7-10 ng of human GluN2 cRNA subunit in a 50 nl volume, and incubated in Barth's solution at 18° C. for 2-7 d. Glass injection pipettes had tip sizes ranging from 10-20 microns, and were backfilled with mineral oil. cRNA was synthesized from linearized template cDNA for rat glutamate receptor subunits according to manufacturer specifications (Ambion).
Two electrode voltage-clamp recordings were made 2-7 days post-injection. Oocytes were placed in a dual-track plexiglass recording chamber with a single perfusion line that splits in a Y-configuration to perfuse two oocytes. Dual recordings were made at room temperature (23° C.) using two Warner OC725B two-electrode voltage clamp amplifiers, arranged as recommended by the manufacturer. Glass microelectrodes (1-10 Megaohms) were filled with 300 mM KCl (voltage electrode) or 3 M KCl (current electrode). The bath clamps communicated across silver chloride wires placed into each side of the recording chamber, both of which were assumed to be at a reference potential of 0 mV. Oocytes were perfused with a solution comprised of (in mM) 90 NaCl, 1 KCl, 10 HEPES, […] and 0.5 BaCl2; pH 7.4, adjusted by addition of NaOH. Oocytes were recorded under voltage clamp at −40 mV. Final concentrations for glutamate and glycine were 50 μM and 30 μM, respectively. Concentration-response curves for experimental compounds were obtained by applying in successive fashion maximal glutamate/glycine, followed by glutamate/glycine plus variable concentrations of experimental compounds. Dose response curves consisting of four to eight concentrations were obtained in this manner. The baseline leak current at −40 mV was measured before and after recording, and the full recording linearly corrected for any change in leak current. The level of inhibition by applied experimental compounds was expressed as a percent of the initial glutamate response, and averaged together across oocytes from multiple experiments. Results were pooled, and the average percent responses at antagonist concentrations were fit by the equation, Percent Response=(100−minimum)/(1+([conc]/IC50)^nH)+minimum where minimum is the residual percent response in saturating concentration of the experimental compounds, IC50 is the concentration of antagonist that causes half of the achievable inhibition, and nH is a slope factor describing steepness of the inhibition curve. […]
For NMDA receptor subtype selectivity experiments human GluN1/GluN2A, GluN1/GluN2C, and GluN1/GluN2D cRNAs were expressed in Xenopus laevis as described above. Here, 10 μM concentrations of the antagonist was perfused with 50 μM glutamate and 30 μM glycine onto the oocyte for two min and the remaining current in the presence of the antagonist was compared to the maximal current obtained with 50 μM glutamate and 30 μM glycine alone (defined as 100%). When IC50 determinations were made against other NMDA receptor subtypes the protocol as described above was followed. […]

Sequence of hNR2B (Q13224 27-1484, other chains not shown): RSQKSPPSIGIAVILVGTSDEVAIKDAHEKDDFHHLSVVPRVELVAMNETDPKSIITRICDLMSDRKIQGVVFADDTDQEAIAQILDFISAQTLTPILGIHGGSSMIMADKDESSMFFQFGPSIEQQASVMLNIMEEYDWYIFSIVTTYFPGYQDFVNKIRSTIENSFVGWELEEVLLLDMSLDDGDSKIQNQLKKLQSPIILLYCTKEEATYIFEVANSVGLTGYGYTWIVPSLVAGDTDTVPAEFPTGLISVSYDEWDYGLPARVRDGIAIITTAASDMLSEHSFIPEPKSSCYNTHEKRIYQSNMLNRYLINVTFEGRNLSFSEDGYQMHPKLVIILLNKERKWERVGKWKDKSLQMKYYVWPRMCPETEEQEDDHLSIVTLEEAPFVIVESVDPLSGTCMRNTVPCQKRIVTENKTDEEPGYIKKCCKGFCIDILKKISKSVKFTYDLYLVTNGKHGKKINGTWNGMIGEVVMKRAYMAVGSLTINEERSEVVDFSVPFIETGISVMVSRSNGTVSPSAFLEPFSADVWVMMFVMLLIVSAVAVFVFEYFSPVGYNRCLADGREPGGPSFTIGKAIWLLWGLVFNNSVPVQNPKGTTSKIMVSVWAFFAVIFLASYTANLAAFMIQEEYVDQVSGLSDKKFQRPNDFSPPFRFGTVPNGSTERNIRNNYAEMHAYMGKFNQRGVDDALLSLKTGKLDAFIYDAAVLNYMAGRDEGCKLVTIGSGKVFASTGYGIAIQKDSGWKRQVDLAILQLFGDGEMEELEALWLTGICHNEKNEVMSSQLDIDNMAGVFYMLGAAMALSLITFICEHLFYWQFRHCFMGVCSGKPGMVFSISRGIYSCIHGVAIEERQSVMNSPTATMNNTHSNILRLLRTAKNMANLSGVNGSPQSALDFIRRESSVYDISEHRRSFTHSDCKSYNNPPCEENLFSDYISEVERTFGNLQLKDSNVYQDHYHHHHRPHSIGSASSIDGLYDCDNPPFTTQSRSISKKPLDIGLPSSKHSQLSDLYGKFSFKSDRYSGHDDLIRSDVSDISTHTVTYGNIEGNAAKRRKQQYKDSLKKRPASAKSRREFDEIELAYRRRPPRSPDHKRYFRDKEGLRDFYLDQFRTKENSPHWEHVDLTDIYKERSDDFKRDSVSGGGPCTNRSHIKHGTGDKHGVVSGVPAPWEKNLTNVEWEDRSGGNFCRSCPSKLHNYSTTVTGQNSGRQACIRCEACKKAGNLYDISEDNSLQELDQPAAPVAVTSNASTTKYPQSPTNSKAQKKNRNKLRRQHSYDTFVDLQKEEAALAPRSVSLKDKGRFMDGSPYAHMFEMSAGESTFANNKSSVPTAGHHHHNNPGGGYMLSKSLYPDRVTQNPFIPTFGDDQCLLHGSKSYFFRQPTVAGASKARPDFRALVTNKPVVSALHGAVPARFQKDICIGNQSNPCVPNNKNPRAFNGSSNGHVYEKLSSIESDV

Structure (SMILES) | IC50 (read-out: Rating (hNR2B IC50)) | IC50 (read-out: hNR2B IC50)
O=c1ccc2cc(OCc3cnc(Nc4ccc(OC(F)F)c(F)c4)nc3)ccc2[nH]1 [Example 37] | < 200 nM | 
O=c1ccc2cc(CCc3cnc(Nc4ccc(OC(F)F)c(Cl)c4)nc3)ccc2[nH]1 [Example 105, 6-(2-(2-(3-chloro-4-(difluoromethoxy)phenylamino)pyrimidin-5-yl)ethyl)quinolin-2(1H)-one] |  | 2.5 nM
O=C1Nc2ccc(OCc3cnc(Nc4ccc(OC(F)F)c(F)c4)nc3)cc2CO1 [Example 84] | < 200 nM | 
Oc1ccc(OCc2cnc(Nc3ccc(Cl)c(Cl)c3)nc2)cc1 [Example 13, 4-((2-(3,4-dichlorophenylamino)pyrimidin-5-yl)methoxy)phenol] |  | 395 nM
Cc1cc(Nc2ncc(CCc3ccc4c(c3)COC(=O)N4)cn2)ccc1OC(F)F [Example 145] | < 200 nM | 
O=c1ccc2cc(OCc3cncc(NCc4ccc(Cl)c(Cl)c4)n3)ccc2[nH]1 [Example 101] | 1000 to 10000 nM | 
Cc1nc(Nc2ccc(Cl)cc2)ncc1COc1ccc2[nH]c(=O)ccc2c1 [Example 51] | < 200 nM | 
FC(F)Oc1ccc(Nc2ncc(CCCNc3ncnc4[nH]ncc34)cn2)cc1 [Example 115] | > 10000 nM | 
Nc1nc2ccc(OCc3cnc(Nc4ccc(OC(F)F)cc4)nc3)cc2s1 [Example 65] | < 200 nM | 
Cc1nc(Nc2ccc(OC(F)F)cc2)ncc1COc1ccc2[nH]c(=O)ccc2c1 [Example 52] | < 200 nM | 
FC(F)Oc1ccc(Nc2ncc(COc3ccc4[nH]cnc4c3)cn2)cc1 [Example 60] | < 200 nM | 
Oc1ncc(OCc2cnc(Nc3ccc(OC(F)F)cc3)nc2)cn1 [Example 70] | < 200 nM | 
Cc1ccc(Nc2ncc(COc3ccc4[nH]c(=O)ccc4c3)cn2)cc1Cl [Example 42] | < 200 nM | 
O=c1ccc2cc(OCc3cncc(NCc4ccc(Cl)cc4)n3)ccc2[nH]1 [Example 100] | 201 to 1000 nM | 
Cc1ccc(Nc2ncc(COc3ccc4[nH]c(=O)ccc4c3)cn2)cc1 [Example 25] | < 200 nM | 97 nM
Oc1ccc(OCc2cnc(Nc3ccc(OC(F)F)cc3)nc2)nn1 [Example 59] | < 200 nM | 
O=c1ccc2cc(OCc3ccc(NCc4ccc(Cl)cc4)nc3)ccc2[nH]1 [Example 1, 6-((6-(4-chlorobenzylamino)pyridin-3-yl)methoxy)quinolin-2(1H)-one] | < 200 nM | 87 nM
O=C1Nc2ccc(OCc3cnc(Nc4ccc(OC(F)F)c(Cl)c4)nc3)cc2CO1 [Example 77] | < 200 nM | 
Oc1ccc(OCc2ccc(Nc3ccc(OC(F)F)cc3)nc2)cc1 [Example 10] | < 200 nM | 13 nM
O=c1ccc2cc(CCc3cnc(Nc4ccc(OC(F)(F)F)cc4)nc3)ccc2[nH]1 [Example 108] | < 200 nM | 
O=c1ccc2cc(OCc3cnc(Nc4ccc(OC(F)F)nc4)nc3)ccc2[nH]1 [Example 50] | < 200 nM | 
Cc1cc(Nc2ncc(COc3ccc4c(c3)COC(=O)N4)cn2)ccc1OC(F)F [Example 82] | < 200 nM | 
Nc1ncc(OCc2cnc(Nc3ccc(OC(F)F)cc3)nc2)cn1 [Example 17, 5-((2-aminopyrimidin-5-yloxy)methyl)-N-(4-(difluoromethoxy)phenyl)pyrimidin-2-amine] |  | > 1000 nM
CCc1ccc(Nc2ncc(CCc3ccc4[nH]c(=O)ccc4c3)cn2)cc1 [Example 131] | < 200 nM | 
CCc1ccc(Nc2ncc(CCc3ccc4[nH]ncc4c3)cn2)cc1 [Example 127] | 201 to 1000 nM | 
Cc1ccc(Nc2ncc(COc3ccc4c(c3)COC(=O)N4)cn2)cc1F [Example 83] | < 200 nM | 
O=C1Nc2ccc(CCc3cnc(Nc4ccc(OC(F)F)c(F)c4)nc3)cc2CO1 [Example 146] | < 200 nM | 

Structure (SMILES) | IC50 (read-out: Rating (hNR2B IC50)) | IC50 (read-out: hNR2B IC50)
CC(Cc1cnc(Nc2ccc(OC(F)F)cc2)nc1)c1ccc2[nH]c(=O)ccc2c1 (centres unmarked) [Example 122] | < 200 nM | 
CC1(C)OC(=O)Nc2ccc(CCc3cnc(Nc4ccc(OC(F)F)cc4)nc3)cc21 [Example 138] | > 10000 nM | 
O=c1ccc2cc(OCc3cncc(Nc4ccc(Cl)cc4)n3)ccc2[nH]1 [Example 99] | 1000 to 10000 nM | 
O=c1ccc2cc(OCc3ccc(NCc4ccc(F)cc4)nc3)ccc2[nH]1 [Example 7] | < 200 nM | 
O=c1[nH]c2ccc(OCc3cnc(Nc4ccc(OC(F)F)cc4)nc3)cc2o1 [Example 16, 6-((2-((4-(difluoromethoxy)phenyl)amino)pyrimidin-5-yl)methoxy)benzo[d]oxazol-2(3H)-one] |  | 14 nM
O=c1ccc2cc(OCc3ccc(NCc4ccc(OC(F)F)cc4)nc3)ccc2[nH]1 [Example 4] | > 10000 nM | 
FC(F)Oc1ccc(Nc2ncc(CCc3ccc4[nH]ncc4c3)cn2)cc1 [Example 112] | 201 to 1000 nM | 
O=c1ccc2cc(OCc3cnc(NCc4ccc(F)cc4)nc3)ccc2[nH]1 [Example 27] | < 200 nM | 62 nM
FC(F)Oc1ccc(Nc2ncc(COc3ccc4[nH]nnc4c3)cn2)cc1 [Example 69] | < 200 nM | 
O=c1ccc2cc(OCc3cnc(Nc4ccc(Cl)c(Cl)c4)cn3)ccc2[nH]1 [Example 98, 6-((5-(3,4-dichlorophenylamino)pyrazin-2-yl)methoxy)quinolin-2(1H)-one] |  | > 3000 nM
FC(F)Oc1ccc(Nc2ncc(COc3cnc4[nH]ncc4c3)cn2)cc1 [Example 79] | < 200 nM | 
CCCc1ccc(Nc2ncc(COc3ccc4[nH]c(=O)ccc4c3)cn2)cc1 [Example 43] | < 200 nM | 
FC(F)(F)Oc1ccc(Nc2ncc(COc3ccc4[nH]ncc4c3Cl)cn2)cc1 [Example 64] | < 200 nM | 
Fc1cc(Nc2ncc(CCc3cnc4[nH]ncc4c3)cn2)ccc1OC(F)F [Example 152] | < 200 nM | 
COc1nc(Nc2ccc(OC(F)F)cc2)ncc1COc1ccc2[nH]c(=O)ccc2c1 [Example 18, 6-((2-((4-(difluoromethoxy)phenyl)amino)-4-methoxypyrimidin-5-yl)methoxy)quinolin-2(1H)-one] |  | 5 nM
FC(F)Oc1ccc(Nc2ncc(CCc3ccc4cn[nH]c4c3)cn2)cc1 [Example 113] | > 10000 nM | 
O=c1ccc2cc(OCc3cnc(NCc4ccc(Cl)cc4)nc3)ccc2[nH]1 [Example 19] | < 200 nM | 
O=c1ccc2cc(OCc3ccc(NCc4ccc(Cl)c(Cl)c4)nc3)ccc2[nH]1 [Example 2, 6-((6-(3,4-dichlorobenzylamino)pyridin-3-yl)methoxy)quinolin-2(1H)-one] | 1000 to 10000 nM | > 3000 nM
COc1ccc(Nc2ncc(COc3ccc4[nH]c(=O)ccc4c3)cn2)cc1 [Example 24] | < 200 nM | 90 nM
CCc1ccc(Nc2ncc(CCc3ccc4[nH]ncc4c3)cn2)cc1Cl [Example 134] | 1000 to 10000 nM | 
O=c1ccc2cc(OCc3cnc(NCc4ccc(F)c(F)c4)nc3)ccc2[nH]1 [Example 26] | < 200 nM | 139 nM
O=c1ccc2cc(OCc3cnc(Nc4ccc(F)c(F)c4)nc3)ccc2[nH]1 [Example 31] | < 200 nM | 
O=c1ccc2cc(OCc3cnc(Nc4ccc(Cl)cc4)nc3)ccc2[nH]1 [Example 14, 6-((2-(4-chlorophenylamino)pyrimidin-5-yl)methoxy)quinolin-2(1H)-one] |  | 64 nM
Fc1cc(Nc2ncc(COc3ccc4[nH]ncc4c3Cl)cn2)ccc1OC(F)F [Example 72] | < 200 nM | 
COc1ccc(Nc2ncc(COc3ccc4[nH]c(=O)ccc4c3)cn2)cc1Cl [Example 36] | < 200 nM | 
O=c1ccc2cc(OCc3ccnc(NCc4ccc(Cl)cc4)n3)ccc2[nH]1 [Example 94] | 1000 to 10000 nM | 
Cc1ccc(Nc2ncc(COc3ccc4[nH]c(=O)ccc4c3)cn2)cc1F [Example 28] | < 200 nM | 101 nM
